Measurements reported in patent publication US9439438B2 (priority 2011, dated 2016).

Tested on: mice
Conditions: mouse, in vivo

[Cl][Mn][Cl] [Mn, MnCl2]
resistance to a lethal STx challenge: completely resistant
